Measurements: PubChem BioAssay (NCI)
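Values below derive from 48-hour exposures of cells grown in 96-well plates, with endpoints linearly interpolated between the two concentrations bracketing the appropriate inhibition level. TGI marks complete inhibition of growth.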

Assays:
Experiment in all cases: growth of human tumour cells (NCI), 48 h
UO-31 renal = system: UO-31 renal
PC-3 prostate = system: PC-3 prostate
OVCAR-5 ovarian = system: OVCAR-5 ovarian
SF-539 CNS = system: SF-539 CNS
MCF7 breast = system: MCF7 breast
SW-620 colon = system: SW-620 colon
SK-MEL-2 melanoma = system: SK-MEL-2 melanoma
HCT-116 colon = system: HCT-116 colon
RXF 393 renal = system: RXF 393 renal
HL-60(TB) leukemia = system: HL-60(TB) leukemia
LOX IMVI melanoma = system: LOX IMVI melanoma
CCRF-CEM leukemia = system: CCRF-CEM leukemia
NCI-H226 lung = system: NCI-H226 lung
HT29 colon = system: HT29 colon
SNB-75 CNS = system: SNB-75 CNS
K-562 leukemia = system: K-562 leukemia
HOP-62 NSCLC = system: HOP-62 NSCLC
RPMI-8226 leukemia = system: RPMI-8226 leukemia
SNB-19 CNS = system: SNB-19 CNS
A498 renal = system: A498 renal
OVCAR-4 ovarian = system: OVCAR-4 ovarian
SF-268 CNS = system: SF-268 CNS
HS 578T breast = system: HS 578T breast
MALME-3M melanoma = system: MALME-3M melanoma
OVCAR-8 ovarian = system: OVCAR-8 ovarian
NCI-H23 lung = system: NCI-H23 lung
A549 NSCLC = system: A549 NSCLC
MDA-MB-231 breast = system: MDA-MB-231 breast
IGROV1 ovarian = system: IGROV1 ovarian
SN12C renal = system: SN12C renal
M14 melanoma = system: M14 melanoma
NCI-H522 lung = system: NCI-H522 lung
U251 CNS = system: U251 CNS
ACHN renal = system: ACHN renal
KM12 colon = system: KM12 colon
HCT-15 colon = system: HCT-15 colon
SK-MEL-5 melanoma = system: SK-MEL-5 melanoma
CAKI-1 renal = system: CAKI-1 renal
HCC-2998 colon = system: HCC-2998 colon
SK-OV-3 ovarian = system: SK-OV-3 ovarian
BT-549 breast = system: BT-549 breast
SF-295 CNS = system: SF-295 CNS
UACC-257 melanoma = system: UACC-257 melanoma
NCI-H460 lung = system: NCI-H460 lung
T-47D breast = system: T-47D breast
MDA-MB-435 = system: MDA-MB-435
HOP-92 NSCLC = system: HOP-92 NSCLC
SK-MEL-28 melanoma = system: SK-MEL-28 melanoma
EKVX NSCLC = system: EKVX NSCLC
TK-10 renal = system: TK-10 renal
OVCAR-3 ovarian = system: OVCAR-3 ovarian
MDA-N = system: MDA-N
UACC-62 melanoma = system: UACC-62 melanoma
MOLT-4 leukemia = system: MOLT-4 leukemia
786-0 renal = system: 786-0 renal
NCI/ADR-RES ovarian = system: NCI/ADR-RES ovarian
COLO 205 colon = system: COLO 205 colon
DU-145 prostate = system: DU-145 prostate

Measured: TGI

COc1cccc(OC)c1NC(=O)C(=O)Nn1c(NNC(=O)c2ccncc2)nc2ccccc2c1=O
not listed: COLO 205 colon | DU-145 prostate
> 100 µM: all other assays above

CCOC(=O)N1CCC2(CC1)C[C@@](C(C)=O)(c1ccccc1)C(C)O2 (some centres undefined)
91.4 µM: T-47D breast
not listed: HCT-116 colon | RXF 393 renal | CCRF-CEM leukemia | SN12C renal | BT-549 breast
> 100 µM: all other assays above
